Drawing on ChEMBL document CHEMBL1629513, “Synthesis, characterization, antiamoebic activity and cytotoxicity of novel 2-(quinolin-8-yloxy) acetohydrazones and their cyclized products (1,2,3-thiadiazole and 1,2,3-selenadiazole derivatives)” (Eur J Med Chem, 2010), this text covers IC50 and viability for 19 compounds.

A word on the IC50: it is the midpoint of a concentration-inhibition curve. A lower IC50 goes with higher potency.

One data set has as its system Entamoeba histolytica. The data set can be described thus: Antiamoebic activity against Entamoeba histolytica HM-1:IMSS after 72 hrs by microdilution assay. Type of data set: functional, organism-based. On the technique in general: Broth dilution looks for growth in wells or tubes with falling amounts of substance.
Data set [1] is described as follows: Cytotoxicity against human MCF7 cells assessed as cell viability up to 100 uM after 48 hrs by MTT assay. The data set is classed as cell-based. The note with it: read-out: Activity. (In general: Tetrazolium dyes change colour on reduction, which living cells bring about.)
For another data set, the system named is MCF7. The data set can be described thus: Cytotoxicity against human MCF7 cells after 48 hrs by MTT assay. Type of data set: cell-based. The note with it: MCF7, 48 h.
A short description of data set [2]: Cytotoxicity against human MCF7 cells assessed as cell viability at 1.56 to 50 uM after 48 hrs by MTT assay. Type of data set: cell-based. The note with it: read-out: Activity.

Regarding `C/C(=N\NC(=O)COc1cccc2cccnc12)c1ccccc1`, the half-inhibitory concentration (IC50) in the data set on Entamoeba histolytica is 0.03 µM; in the data set with MCF7, > 100 µM. In addition, the viability at 48 h in data set [1] worked out at 100%.

Consider `C/C(=N\NC(=O)COc1cccc2cccnc12)c1ccc(Br)cc1`, for which the figures for the 50% inhibitory concentration (IC50) in the data set on Entamoeba histolytica and in the data set with MCF7 were 0.04 µM and > 100 µM, respectively. Further, the viability at 48 h in data set [1] was found to be 100%.

In the case of `C/C(=N\NC(=O)COc1cccc2cccnc12)c1ccc(Cl)cc1`, the IC50 with Entamoeba histolytica is 0.04 µM; with MCF7, > 100 µM. The viability at 48 h in data set [1] was determined as 100%.

With `C/C(=N\NC(=O)COc1cccc2cccnc12)c1ccccn1`, the results for the IC50 in the data set on Entamoeba histolytica and in the data set with MCF7 were 0.05 µM and > 100 µM, respectively. Besides, the viability at 48 h in data set [1] came out at 100%.

As for `C/C(=N\NC(=O)COc1cccc2cccnc12)c1ccco1`, the concentration for half-maximal inhibition (IC50) was 0.05 µM in the data set on Entamoeba histolytica and > 100 µM in the data set on MCF7. For the same compound, in data set [1], the viability at 48 h was 100%.

As for `C/C(=N\NC(=O)COc1cccc2cccnc12)c1cccs1`, the values for the concentration for half-maximal inhibition (IC50) in the data set on Entamoeba histolytica and in the data set with MCF7 were 0.08 µM and > 100 µM, respectively. The viability at 48 h in data set [1] is 88%.

On to `Brc1ccc(-c2csnn2)cc1`, for which the IC50 in the data set with Entamoeba histolytica was 0.24 µM; in the data set with MCF7 it was 68.1 µM. Moreover, the viability at 48 h in data set [1] stood at 68%.

As to `Clc1ccc(-c2csnn2)cc1`, the IC50 with Entamoeba histolytica is 0.39 µM; in the data set on MCF7 it was > 100 µM.

For `c1ccc(-c2csnn2)nc1`, the IC50 with Entamoeba histolytica is 5.46 µM.

In the case of `c1coc(-c2csnn2)c1`, the figures for the IC50 in the data set with Entamoeba histolytica and with MCF7 were 0.23 µM and 95.1 µM, respectively.

Turning to `c1csc(-c2csnn2)c1`, the concentration for half-maximal inhibition (IC50) in the data set on Entamoeba histolytica stood at 2.25 µM; with MCF7, 66.9 µM.

For `c1ccc(-c2c[se]nn2)cc1`, half-maximal inhibition with Entamoeba histolytica (IC50) required 4.56 µM.

`Brc1ccc(-c2c[se]nn2)cc1`: in the data set with Entamoeba histolytica, the IC50 came to 2.95 µM.

In the case of `Clc1ccc(-c2c[se]nn2)cc1`, the values for the IC50 with Entamoeba histolytica and in the data set on MCF7 were 0.58 µM and 57.1 µM, respectively. In addition, in data set [1], the viability at 48 h turned out to be 57%. In addition, the viability at 48 h, up to 50 µM in data set [2] came out at 66%.

Regarding `c1ccc(-c2c[se]nn2)nc1`, the IC50 in the data set on Entamoeba histolytica turned out to be 0.46 µM; with MCF7, 86.6 µM.

As to `c1coc(-c2c[se]nn2)c1`, in the data set with Entamoeba histolytica, inhibition was half-maximal at 5.72 µM (IC50).

For the compound `c1csc(-c2c[se]nn2)c1`, the IC50 with Entamoeba histolytica worked out at 5.28 µM.

In the data set with Entamoeba histolytica, `c1ccc(-c2csnn2)cc1` returned a half-maximal inhibitory concentration (IC50) of 7.46 µM.

As to `Cc1ncc([N+](=O)[O-])n1CCO` [METRONIDAZOLE], in data set [1], the viability at 48 h is 100%. For the same compound, the IC50 with MCF7 was > 100 µM.
